Experimental data as given in PMC6367500, “18β-glycyrrhetyl-3-O-sulfate would be a causative agent of licorice-induced pseudoaldosteronism” (Scientific Reports, 2019).

Tests used:
[1] = Fecal excretion of GA metabolites in SD rats injected i.v. with GA; assay type: in vivo; details: GA 0.2 mg/kg i.v.
Description: (§1) Then, bile samples were collected for 4 h (E).
(§2) Female SD rats or EHBRs (9-week-old) were anesthetized by an intraperitoneal (i.p.) injection of urethane (1 g/kg) and their jugular veins were exposed. […] Feces were homogenized in phosphate-buffered saline (PBS; 0.15 M, pH 7.2), centrifuged (1.2 × 10^4 g, 10 min), and the supernatants were collected. After 1 week as a washout period, female SD rats were anesthetized by an i.p. injection of urethane (1 g/kg) and their biliary tract was cannulated. […] Aliquots (10 µl) of plasma, urine, homogenate of feces, or bile were mixed with 20 µl of subtilisin (0.91 U/ml) and incubated at 37 °C for 30 min, followed by the addition of 70 µl of astragaloside IV solution (1 µg/ml in ethanol containing 0.5% formic acid, used as internal standard), and kept at −20 °C for 30 min.

anti-3MGA-mAb [2] = assay: Dot-blot analysis using anti-3MGA-mAb; assay type: binding; details: 1 µg spotted on PES membrane, imaging analysis
Description: We confirmed the cross-reactivity of anti-3MGA-mAb against these GL metabolites. GL, GA, 3MGA, and compounds 1, 2, and 3 (1 µg each) were spotted on a polyethersulfone (PES) membrane, fixed onto the membrane, and colored using an anti-3MGA-mAb (Fig. 5A). […] Thus, the anti-3MGA-mAb cross-reacted to some extent with other metabolites of GL.
(§3) Figure 5 Dot-blot analysis and ELISA detection range of GL metabolites using anti-3MGA-monoclonal antibody (mAb). GL metabolites (1 µg each) were spotted on a PES membrane, and colored using an anti-3MGA-mAb (A). Competitive ELISA using anti-3MGA-mAb for GL metabolites was performed. Data are represented from a single analysis (n = 1) (B). […] Data are represented as mean ± S.D. (n = 3). Two-way ANOVA indicated a significant difference between GA and 3 (F1,36 = 4441, P < 0.001), concentrations (F8,36 = 315, P < 0.001), and their interactions (F8,36 = 281, P < 0.001). The calibrated line for the absorbance-concentration profile of 3 was calculated by the linear least-squares method, and the regression formula is shown in graph (C).
Anti-3MGA-mAb and 3MGA-human serum albumin (HSA)-conjugate were developed by the same protocols established in our previous studies[22],[23]. GL, GA, 3MGA, 1, 2, and 3 (1 µg each) were spotted on a Mustang^TM E positively charged PES membrane (Pall Co., East Hills, NY, USA). The membrane was then immersed into 0.1 M MES buffer (pH 4.7) containing 2% EDC and 1% NHS, and kept at room temperature for 1 h to activate the carboxyl group. After washing with distilled water, PBS containing 1% bovine serum albumin (BSA) was added to the membrane, which was shaken at room temperature for 2 h for fixation. Next, the membrane was blocked with PBS containing 5% skim milk (Morinaga-milk, Tokyo, Japan) and 0.1% Tween 20 at 4 °C overnight to reduce nonspecific adsorption. After washing twice with PBS containing 0.1% Tween 20 (T-PBS) for 5 min, the membrane was incubated with anti-3MGA-mAb and kept at room temperature for 3 h with constant agitation. The membrane was then washed twice with T-PBS for 5 min and treated with 1:500 diluted horseradish peroxidase (HRP)-labeled goat anti-mouse IgG (whole molecule; Sigma, St. Louis, MO, USA) antibody in T-PBS for 1 h with gentle shaking. Finally, the membrane was washed twice with T-PBS and once with PBS, and exposed to 1 mg/ml of freshly prepared 4-chloro-1-naphthol-0.03% H2O2 in PBS for 15 min at room temperature. The reaction was stopped by washing with distilled water, and the immunostained PES membrane was allowed to dry and then photographed. The positively stained areas were measured using Image J 1.46r (http://imageJ.nih.gov/ij).

anti-3MGA-mAb [3] = assay: Competitive ELISA using anti-3MGA-mAb; assay type: binding; details: specificity to 3MGA calibrated to 100%, n = 1
Description: as §3
When the specificity of the mAb to 3MGA was calibrated to 100%, the cross-reactivity for GL, GA, 1, 2, and 3 was 0.23%, 2.2%, 4.8%, 4.0%, and 23%, respectively. […] We confirmed the selectivity of the anti-3MGA-mAb in discriminating between 3 and GA and established the detectable measurement range for 3 in this ELISA system.
3MGA-HSA (1 µg/ml in 50 mM carbonate buffer, pH 9.6) was added into a 96-well plate (Nagel Nunc, Penfield, NY, USA) (100 µl in a well) and incubated at 37 °C for 1 h. After the removal of 3MGA-HSA, the wells were washed three times with T-PBS (200 µl in a well). The wells were incubated with 300 µl in a well of 5% skim milk at 4 °C overnight. After the wells had been washed with T-PBS three times, the sample solution diluted with Can Get Signal® Solution 1 (Toyobo Co., Ltd., Osaka, Japan) (50 µl in a well) and anti-3MGA-mAb (1:4,000 dilution with Can Get Signal® Solution 1) (50 µl in a well) were added to the wells, and the plate was incubated at 37 °C for 1 h. After the wells had been washed with T-PBS three times, HRP-labeled goat anti-mouse IgG (Fc specific) antibody (Sigma, 1:20,000 dilution with Can Get Signal® Solution 2) was added into the wells (100 µl in a well) and the plate was incubated at 37 °C for 1 h. Next, the wells were washed with T-PBS three times and the substrate solution (3,3′,5,5′-tetramethylbensidine, TMB solution; Fujifilm Wako Pure Chemical Corporation, Osaka, Japan) was added to the wells (100 µl in a well), followed by incubation at room temperature for 5 min. Then, the stop solution (0.5 M sulfuric acid) was added to the wells (100 µl in a well) and the optical density was measured at 450 nm/630 nm.

[4] = Plasma and urine levels of GA metabolites in SD rats orally treated with GA (LC-MS/MS); assay type: in vivo; details: GA 0.20 g/kg orally; for concentration at 12 h: female, SD (Sprague-Dawley), rat, plasma, po, 0.2 g/kg
Description: as §1, §2

[5] = Binding to serum albumin by ultrafiltration of pooled EHBR plasma; details: female, EHBR (Eisai hyperbilirubinuria rat), oral, 200 mg/kg

detection in feces collected for 24 h [1]	amount in accumulated urine collected 12 h after oral treatment [4]	concentration at 12 h ([5]; plasma ultrafiltrate) [µM]	concentration at 12 h ([5]; plasma) [µM]	time of plasma peak after oral treatment [4] [h]	concentration at 12 h [4] [nM]	SMILES	area of positive staining in dot-blot (anti-3MGA-mAb [2]) [pixels]	cross-reactivity of anti-3MGA-mAb (anti-3MGA-mAb [3]) [%]
not found	below detectable levels					CC1(C)[C@@H](O[C@@H]2O[C@H](C(=O)O)[C@@H](O)[C@H](O)[C@H]2O)CC[C@]2(C)[C@H]3C(=O)C=C4[C@@H]5C[C@@](C)(C(=O)O)CC[C@]5(C)CC[C@@]4(C)[C@]3(C)CC[C@@H]12 [3MGA, 3-monoglucuronyl glycyrrhetinic acid, reference compound]	3395	100
		< 0.016	7	1	4700	CC1(C)[C@@H](O)CC[C@]2(C)[C@H]3C(=O)C=C4[C@@H]5C[C@@](C)(C(=O)O)CC[C@]5(C)CC[C@@]4(C)[C@]3(C)CC[C@@H]12 [GA, glycyrrhetinic acid, reference compound]	97	2.2
not found	below detectable levels					CC1(C)[C@@H](OS(=O)(=O)O)CC[C@]2(C)[C@H]3C(=O)C=C4[C@@H]5C[C@@](C)(C(=O)O[C@@H]6O[C@H](C(=O)O)[C@@H](O)[C@H](O)[C@H]6O)C[C@H](O)[C@]5(C)CC[C@@]4(C)[C@]3(C)CC[C@@H]12 [compound 1, 22α-hydroxy-18β-glycyrrhetyl-3-O-sulfate-30-glucuronide]	606	4.8
found	below detectable levels	< 0.0032	7.8			CC1(C)[C@@H](OS(=O)(=O)O)CC[C@]2(C)[C@H]3C(=O)C=C4[C@@H]5C[C@@](C)(C(=O)O)C[C@H](O)[C@]5(C)CC[C@@]4(C)[C@]3(C)CC[C@@H]12 [compound 2, 22α-hydroxy-18β-glycyrrhetyl-3-O-sulfate]	79	4.0
found	0.03 nmol	< 0.0032	11.5		300	CC1(C)[C@@H](OS(=O)(=O)O)CC[C@]2(C)[C@H]3C(=O)C=C4[C@@H]5C[C@@](C)(C(=O)O)CC[C@]5(C)CC[C@@]4(C)[C@]3(C)CC[C@@H]12 [compound 3, 18β-glycyrrhetyl-3-O-sulfate]	146	23
